From patent US20100075960A1 (priority 2006, published 2010) come the findings set out here.

In general, IC50 refers to the concentration that gives 50% inhibition. A higher IC50 goes with a need for much substance.

Type in all cases: cell-based
For one assay, the system named is HCT116. As to the kind of experiment: Inhibition of cell proliferation, HCT116. The settings on record: Homo sapiens, HCT-116; 72 h treatment; methylene blue or CellTiter-Glo. In general terms: ATP-based viability assays read luminescence as a measure of living cells.
A further assay deals with COLO205. Nature of the assay: Inhibition of cell proliferation, COLO205. The following applies: Homo sapiens, COLO 205; Colon; 72 h; methylene blue or CellTiter-Glo. The procedure: (§1) II. Inhibition of Cell Proliferation by PLK1 Inhibitors.
(§2) Exponentially growing cell lines of different tumor origins, cultured in appropriate media containing 10% fetal bovine serum at 37° C. in a 5% CO2 incubator were plated in 96 or 384-well plates. Twenty four hours post-plating, cells were treated with different concentrations of test compounds ranging from 20 μM to 0.04 nM. Several wells were left untreated as a control. Seventy two hours post-treatment, cell numbers were determined using different techniques; 100 μl per well of methylene blue (Sigma M9140) (0.5% in 50:50 Ethanol:water), or 10-100 μl per well of CellTiter-Glo (Promega #G7573), depending on well size. For methylene blue staining, stain was incubated at room temperature for 30 minutes before plates were rinsed and dye solubilized in 1% N-lauroyl sarcosine, sodium salt, (Sigma L5125, in PBS). Plates were read on a microplate reader, measuring the OD at 620 nm. For CellTiter-Glo, plates were incubated at room temperature for 15 minutes and the chemiluminescent signal was read on the Victor V or Envison 2100 reader.
(§3) Percent inhibition of cell growth was expressed as percent proliferation relative to 100% proliferation (control). Concentration of test compound that inhibited 50% of cell growth (IC50) was determined by 4 parameter fit of data using XLfit, (value of no cell control was substracted from all samples for background). The data are shown in Table 1 and Table 2 below and represent a compilation of several different experiments each performed using the general parameters outlined above, although minor variations may have been employed in some instances, in Table 1 and Table 2, +=IC50>1 μM; ++=IC50 0.5-1 μM: +++=IC50<0.5 μM.

The next assay concerns HT29. As to the kind of experiment: Inhibition of cell proliferation, HT29. The following applies: Homo sapiens, HT-29; Colon; 72 h; methylene blue or CellTiter-Glo. The procedure: as §1, §2, §3
A further assay concerns MX-1. As to the kind of experiment: Inhibition of cell proliferation, MX-1. The following applies: Homo sapiens, MX1; Breast; 72 h; methylene blue or CellTiter-Glo. How it is done: as §1, §2, §3
In a further assay the test system is SKOV-3. Nature of the assay: Inhibition of cell proliferation, SKOV-3. The settings on record: Homo sapiens, SK-OV-3; Ovarian; 72 h; methylene blue or CellTiter-Glo. The procedure:
as §1, §2, §3

The next assay has as its system LNCaP. As to the kind of experiment: Inhibition of cell proliferation, LNCaP. The settings on record: Homo sapiens, Prostate, 72 h, methylene blue or CellTiter-Glo. How it is done:
as §1, §2
(§4) Percent inhibition of cell growth was expressed as percent proliferation relative to 100% proliferation (control). […]

The subject of the next assay is H1299. As to the kind of experiment: Inhibition of cell proliferation, H1299. The settings on record: Homo sapiens, NCI-H1299; Lung; 72 h; methylene blue or CellTiter-Glo. The procedure:
as §1, §2, §4

In a further assay the test system is Hela. Nature of the assay: Inhibition of cell proliferation, Hela. The settings on record: Homo sapiens, Cervical, 72 h, methylene blue or CellTiter-Glo. The procedure:
as §1, §2, §4

The subject of a further assay is HN5. Nature of the assay: Inhibition of cell proliferation, HN5. The settings on record: Homo sapiens; Head and neck; Table 2 first HN5 line; 72 h. The procedure:
as §1, §2, §3

The next assay concerns MCF7. Nature of the assay: Inhibition of cell proliferation, MCF7. The settings on record: Homo sapiens, Breast, 72 h, methylene blue or CellTiter-Glo. How it is done:
as §1, §2, §4

Another assay concerns MDA-MB-468. As to the kind of experiment: Inhibition of cell proliferation, MDA-MB-468. The following applies: Homo sapiens, Breast, 72 h, methylene blue or CellTiter-Glo. The procedure:
as §1, §2, §4

A further assay deals with RPMI 8226. As to the kind of experiment: Inhibition of cell proliferation, RPMI 8226. The following applies: Homo sapiens, leukemia, 72 h, methylene blue or CellTiter-Glo. How it is done:
as §1, §2, §4

Another assay relates to A549-L. As to the kind of experiment: Inhibition of cell proliferation, A549-L. The settings on record: lung; 72 h; methylene blue or CellTiter-Glo. The procedure:
as §1, §2, §3

The next assay relates to P388. Nature of the assay: Inhibition of cell proliferation, P388. The following applies: Mouse leukemia, 72 h, methylene blue or CellTiter-Glo. The procedure:
as §1, §2, §3

`C[C@@H](Oc1cc(-n2cnc3cc(-c4cnn(C)c4)ccc32)sc1C(N)=O)c1cccc(OC2CCN(CCS(C)(=O)=O)CC2)c1Cl` [Example 31, 3-({(1R)-1-[2-Chloro-3-({1-[2-(methylsulfonyl)ethyl]-4-piperidinyl}oxy)phenyl]ethyl}oxy)-5-[5-(1-methyl-1H-pyrazol-4-yl)-1H-benzimidazol-1-yl]-2-thiophenecarboxamide]: the concentration for half-maximal inhibition (IC50) is below 500 nM with HCT116; below 500 nM in the assay on COLO205; below 500 nM in the assay on HT29; below 500 nM with MX-1; below 500 nM in the assay with SKOV-3; 500 to 1000 nM in the assay with LNCaP. Further, the half-inhibitory concentration (IC50) with H1299, with Hela, in the assay with HN5, in the assay on MCF7, in the assay on MDA-MB-468 and with RPMI 8226 was below 500 nM in each case.
Consider `C[C@@H](Oc1cc(-n2cnc3cc(-c4cnn(C)c4)ccc32)sc1C(N)=O)c1cccc(OC2CCNCC2)c1Cl` [Example 47, 3-({(1R)-1-[2-Chloro-3-(4-piperidinyloxy)phenyl]ethyl}oxy)-5-[5-(1-methyl-1H-pyrazol-4-yl)-1H-benzimidazol-1-yl]-2-thiophenecarboxamide], for which the IC50 with HCT116, in the assay with A549-L, in the assay on COLO205, in the assay on HT29, with MX-1 and in the assay on SKOV-3 was below 500 nM each time. For the same molecule, the IC50 with P388 was below 500 nM.
